According to PubChem BioAssay (NCI):
“And” between values parts separate entries of the source, which are not always exact repeats. Identical values can stand only once.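 Each compound was tested at five concentrations against cells in 96-well plates for 48 hours. GI50 = concentration required for 50% inhibition of growth. At the TGI there is no net growth.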 Where a SMILES comes first, the peptide text is derived from it. [ ]: non-standard residue; d: D form. The star is where a group is joined. X13 = OC[C@H](CC1CCCCC1)N*; dIva = CC[C@@](C)(N)C(=O)O; Aib = CC(C)(N)C(=O)O

System: MDA-MB-468 breast
Test: NCI-60 cell line screen, 48 h

Row | Structure (SMILES) | GI50 | TGI
1 | COc1ccc(-c2nnc(SCc3ccc(O)c4ncccc34)n2-c2ccccc2)cc1 | 810 nM | 6570 nM
2 | C=CC(=O)N1CCN(c2nc(=O)n(-c3c(C)ccnc3C(C)C)c3nc(-c4c(O)cccc4F)c(F)cc23)[C@@H](C)C1 | 22000 nM | > 81100 nM
3 | CCn1c(CN2CCN(Cc3ccccc3)CC2)nc2cc(NC(=O)c3cccs3)ccc21 | 6160 nM | 47100 nM
4 | C#CCC(Cc1cnc2nc(N)nc(N)c2n1)c1ccc(C(=O)N[C@@H](CCC(=O)O)C(=O)O)cc1 (stereo not given in full) | < 10 nM | > 20400 nM
5 | COc1ccc(/C=C\c2cc(OC)c(OC)c(OC)c2)cc1OC(=O)c1cccc(Cn2cc(CCOC(=O)[C@H](N)Cc3cn(C)c4ccccc34)nn2)c1 | < 10 nM | 3570 nM
6 | C/C(=N\Nc1cc(C)c2cc(C)ccc2n1)c1ccccn1 | 65.4 nM | 318 nM
7 | O=C1c2cc3c(cc2-c2c1c1ccc(Cl)cc1c(=O)n2CCCNCCO)OCO3 | 85 nM | 2350 nM
8 | O=C(/C=C/c1cccnc1)NCCCCC1CCCN(C(=O)c2ccccc2)C1 (stereo not given) | 13600 nM | > 100000 nM
9 | CCc1c(C#N)c(S[C@@H](C(N)=O)c2ccccc2)nc(N(C)C)c1C#N | 6140 nM | > 100000 nM
10 | O=C1/C(=C/c2ccccc2)CN(C(=O)c2cccnc2)C/C1=C\c1ccccc1 | 1820 nM | 4240 nM
11 | COc1cc(NC2=C(Cl)C(=O)c3nc(C)ccc3C2=O)cc(OC)c1 | 1230 nM | 2570 nM
12 | C=C(C)[C@@H]1CC[C@]2(COC)CC[C@]3(C)[C@H](CC[C@@H]4[C@@]5(C)CCCNC(C)(C)[C@@H]5CC[C@]43C)[C@@H]12 | 1570 nM | 3180 nM
13 | O=C1C(=O)c2ccccc2C(O)=C1CC=C(Br)Br | 11400 nM | 41800 nM
14 | C=C1C(=O)O[C@H]2[C@H]1CC/C(Cn1cc(-c3cc(C(F)(F)F)cc(C(F)(F)F)c3)nn1)=C\CC[C@@]1(C)O[C@@H]21 | 424 nM | 1750 nM
15 | O=c1c2ccccc2n(C[C@H]2CO2)c2ccccc12 | 1830 nM | 3810 nM
16 | Cn1c(/C=C(\C#N)c2ccccc2)nc2c(N3CCOCC3)nc(Cl)nc21 | 688 nM | 2190 nM
17 | COC1CC2CCC(C)C(O)(O2)C(=O)C(=O)N2CCCCC2C(=O)OC(C(C)CC2CCC(O)C(OC)C2)CC(=O)C(C)C=C(C)C(O)C(OC)C(=O)C(C)CC(C)/C=C/C=C/C=C1C (stereo not given) | < 5 nM | 7350 nM
18 | Nc1c(Br)cc(Br)c2c1[nH]c(=O)c1ccccc12 | 550 nM | 8900 nM
19 | Fc1ccc2c(c1)c(-c1nc(-c3c[nH]c4ncccc34)cs1)cn2CCCN1CCCCC1 | 1610 nM | 3230 nM
20 | COc1cc(-c2nn(-c3cccc(NC(=O)Nc4cc(C(F)(F)F)cc(C(F)(F)F)c4)c3)cc2-c2ccncc2)ccc1Cl | 236 nM | 2310 nM
21 | Cc1c(-c2c(-c3ccc(F)o3)sc3ncnc(O[C@H](Cc4ccccc4OCc4ccnn4CC(F)(F)F)C(=O)O)c23)ccc(OCCN2CCN(C)CC2)c1Cl | 25.3 nM | 105 nM
22 | Cc1cc2nc3c4cc(N)ccc4n(CCN(C)C)c3nc2cc1C | 1040 nM | 2790 nM
23 | Cc1ccccc1N=Nc1ccc(NC(=O)c2ccnn2C)c(C)c1 | 3840 nM | 70600 nM

Row | Structure (SMILES) | GI50 | TGI
24 | CC(C)(O)CS(=O)(=O)Nc1ccc2c(c1)CCN(C(=O)COc1cccnc1)C2 | > 100000 nM | > 100000 nM
25 | COc1cc(C)c(Cl)cc1C1=NN(c2ccc(S(N)(=O)=O)cc2)C(/C=C/c2ccccc2)C1 (stereo not given) | 2140 nM | 5790 nM
26 | COc1ccccc1CCN=C1NC(=O)/C(=C/c2ccc3ncccc3c2)S1 | 4590 nM | 16400 nM
27 | C/C(=N/Nc1nc2ccccc2n1C)c1ccccn1 | 31.9 nM | 239 nM
28 | O=[N+]([O-])c1ccc(-c2nnc(SCc3ccc(O)c4ncccc34)o2)cc1 | 396 nM | > 100000 nM
29 | Ic1ccccc1-c1ccccc1 | 85000 nM | > 100000 nM
30 | CC(C)[C@H](CO)Nc1nc(Nc2ccc(C(=O)NCCNS(=O)(=O)c3cccc4c(N(C)C)cccc34)c(Cl)c2)c2ncn(C(C)C)c2n1 | 1690 nM | 6750 nM
31 | CCCc1cc2c(=O)c(C(=O)OC)c[nH]c2cc1N(CC)CC | 24400 nM | > 100000 nM
32 | O=C(CNc1ccc2c(c1)C(=O)c1ccccc1C2=O)Nc1ccc2c(c1)C(=O)c1ccccc1C2=O | 896 nM | 2480 nM
33 | O=C1NC(O)C(c2c[nH]c3ccccc23)=C1c1c[nH]c2ccccc12 (stereo not given) | > 25000 nM | > 25000 nM
34 | COC(=O)C1=C(C(=O)ON)C2C=CC1(C(Cc1ccccc1)Nc1ccccc1)O2 (stereo not given) | 1420 nM | 2800 nM
35 | CC[C@H](Nc1nc(NCc2cnc(C)cc2C)c2ncn(C(C)C)c2n1)[C@@H](C)O | 192 nM | 470 nM
36 | CC1=C2C[C@H]3[C@@H](CC[C@@H]4CC(NS(C)(=O)=O)CC[C@@]43C)[C@@H]2CC[C@@]2(C1)O[C@@H]1C[C@H](C)CN[C@H]1[C@H]2C (stereo not given in full) | 2000 nM | 5620 nM
37 | CCOC(=O)N1CCc2cc(OC)c(OC)c3c2c1cc1cc(OC)c(OC)cc13 | 3170 nM | > 100000 nM
38 | CCOc1ccc(-c2nonc2NC(=O)c2cccc(C)c2)cc1OCC | 17600 nM | 48800 nM
39 | CC(C)(C)c1nn(-c2ccccc2)c2c1C(=O)CSC(c1ccccc1Cl)N2 (stereo not given) | 1010 nM | 12100 nM
40 | COC(=O)c1c2c(c(C)[n+]([O-])c1C)C(=O)C=C(NCc1ccc(F)c(Cl)c1)C2=O | 200 nM | 712 nM
41 | CC1(C)N=C(N)N=C(N)N1c1ccc(OCCCCOc2ccc(S(=O)(=O)F)cc2)c(Cl)c1 | 188 nM | 8800 nM
42 | CC[C@@](C)(NC(=O)C(C)(C)NC(=O)[C@@H](NC(=O)[C@@H]1CCCN1C(=O)C(C)(C)NC(=O)[C@H](CC(C)C)NC(=O)CNC(=O)C(C)(C)NC(=O)[C@@H](NC(=O)C(C)(C)NC(=O)[C@H](CCC(N)=O)NC(=O)[C@H](C)NC(=O)C(C)(C)NC(=O)[C@H](C)NC(=O)C(C)(C)NC(=O)[C@H](C)NC(=O)C(C)(C)NC(C)=O)C(C)C)C(C)C)C(=O)N[C@@H](CCC(N)=O)C(=O)N[C@@H](CCC(N)=O)C(=O)N[C@H](CO)CC1CCCCC1 (Ac-[Aib]A[Aib]A[Aib]AQ[Aib]V[Aib]GL[Aib]PV[Aib][dIva]QQ-X13) | 747 nM | 4080 nM
43 | NC(N)=N/N=C\c1cccc(OCc2ccccc2)c1 | 1340 nM | 2730 nM
44 | COc1ncc(-c2ccc3nccc(-c4ccnnc4)c3c2)cc1NS(=O)(=O)c1ccc(F)cc1F | 2.7 nM and < 10 nM | 26.6 nM and 15.8 nM
45 | CCC/C(=N/N=C(N)N)c1ccc(NC(=O)c2cc3cc(OC)ccc3[nH]2)cc1 | 2340 nM | 12100 nM
